Series [1] has as its target T1, AChE (from electric eel) (Electrophorus electricus, UniProt O42275).
T1 construct: purchased Merck & Co
The series can be described thus: biochemical. To be noted: for Selectivity Index = IC50 (BChE)/IC50 (AChE): IC50 BuChE/IC50 AChE; for IC50: mean ± SEM, NA = No potent inhibitory activity. Type of series: biochemical. The protocol:
(§1) Photometric 96-well microplates made from polystyrene (Thermo Scientific, Waltham, […]. USA) were used for measurement purposes.
(§2) AChE and BuChE inhibitory activities were measured by the spectrophotometric method of Ellman, with slight modification. Briefly, all in vitro assays were performed in 0.1 M NaH2PO4/Na2HPO4 buffer, pH 7.4, using a THERMO Enzyme-labeled Instrument. The enzyme solutions were prepared to obtain 2.0 units/mL in 2.0 mL aliquots. The assay medium (1 mL) consisted of phosphate buffer (pH 7.4), 10 μL of the enzyme, 30 μL of 0.01 M DTNB, and 30 μL of substrate (ATC or BTC) at a concentration of 0.01 M. The test and reference compounds were first dissolved in DMSO (5‰) and fetal bovine serum (1‰), and then diluted in 0.1 M NaH2PO4/Na2HPO4 buffer (pH 7.4) to provide a final concentration range. The inhibitors were added to the assay solution containing enzyme, buffer, and DTNB with pre-incubation for 20 min at 37 °C, prior to the addition of the substrate. The activity was determined by measuring the increase in absorbance at 410 nm at 1 min intervals at 37 °C. The data were calculated according to the method described by Ellman et al. Each concentration was assayed in triplicate. Blanks containing all of the components except AChE were included in the analyses.

Series [2] deals with T2, Aβ (1-42) (Homo sapiens, UniProt P05067).
T2 construct: Aβ (1-42) peptide (Sigma-Aldrich); purchased Sigma-Aldrich
T2 sequence (P05067 672-713): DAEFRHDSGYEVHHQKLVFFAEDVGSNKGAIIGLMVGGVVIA
The series is described as follows: biochemical. The settings on record: self-induced aggregation, thioflavin-T; Aβ 20 μM, 37 °C, 24 h; NA = No potent inhibitory activity. The protocol: A Thioflavin T-based fluorometric assay was performed in order to investigate the self-induced Aβ (1-42) aggregation. Briefly, compounds to be tested were firstly dissolved in DMSO to obtain a 10 mM solution and then diluted in phosphate buffer (pH 7.4) to provide a final concentration range. […] After incubation, thioflavin-T (5 μM in 50 mM glycine-NaOH buffer, pH 8.0) was added into the above 96-well microplate and the samples were diluted to a final volume of 150 μL. […] Each inhibitor was run in triplicate.

Series [3] has as its target T3, BuChE (from equine serum) (Equus caballus, UniProt P81908).
T3 construct: purchased Merck & Co; host or cells: equine serum
The series is described as follows: biochemical. To be noted: mean ± SEM. The method, then: as §1, §2

For series [4], the system named is HepG2 cells. Type of series: cell-based. The protocol:
One of the best documented side-effects of the drug discovery and development of AD is cytotoxicity. To probe whether such a type of target compounds involves cytotoxic effects, we respectively treated HepG2 cells and SH-SY5Y cells with several concentrations of the corresponding compound. Cell viability was determined by a CCK-8 assay. […].
HepG2 cells (human hepatocellular liver carcinoma cell line from American Type Culture Collection, ATCC) were cultured in Eagle’s minimum essential medium (EMEM) supplemented with 10% heat-inactivated fetal bovine serum (FBS), and 100 U/mL of penicillin/streptomycin (Gino Biomedical Technology Co. LTD., Hangzhou, China). Cultures were seeded into flasks containing supplemented medium and maintained at 37 °C in a humidified atmosphere of 5% CO2. For assays, cells (1.0 × 10^5 cells/well) were seeded in a 96-well plate in complete medium, the medium was removed after 24 h, and cells were exposed to the increasing concentrations of compounds 8q or 8r (0, 25, 50, 125, 200, 300, 400, and 500 μM) in DMEM with no serum for a further 24 h. Cell survival was measured through a CCK-8 assay. All compounds were dissolved in pure DMSO.

Series [5] relates to SH-SY5Y cells. The format is cell-based. The protocol:
To probe whether such a type of target compounds involves cytotoxic effects, we respectively treated HepG2 cells and SH-SY5Y cells with several concentrations of the corresponding compound. Cell viability was determined by a CCK-8 assay.
SH-SY5Y cells (human neuroblastoma cell line from American Type Culture Collection, ATCC, Manassas, VA, USA) were seeded into 96-well plates at a density of 4 × 10^4 cells/mL in Dulbecco’s modified Eagle’s medium (DMEM) supplemented with 10% FBS and 100 U/mL of penicillin/streptomycin (Gino Biomedical Technology Co. LTD., Hangzhou, China), and incubated in a humidified atmosphere containing 5% CO2 at 37 °C. […] After this incubation, 10 μL/well of CCK-8 (5 mg/mL) was added and incubated at 37 °C for 4 h. The optical density (OD) of each well was measured using an Epoch Microplate Spectrophotometer (BioTek Instruments, Inc., Winooski, VT, USA) with a test wavelength of 450, 630 nm.

Where two headings read alike, the source gives them in different places.

T1 sequence (O42275 24-633): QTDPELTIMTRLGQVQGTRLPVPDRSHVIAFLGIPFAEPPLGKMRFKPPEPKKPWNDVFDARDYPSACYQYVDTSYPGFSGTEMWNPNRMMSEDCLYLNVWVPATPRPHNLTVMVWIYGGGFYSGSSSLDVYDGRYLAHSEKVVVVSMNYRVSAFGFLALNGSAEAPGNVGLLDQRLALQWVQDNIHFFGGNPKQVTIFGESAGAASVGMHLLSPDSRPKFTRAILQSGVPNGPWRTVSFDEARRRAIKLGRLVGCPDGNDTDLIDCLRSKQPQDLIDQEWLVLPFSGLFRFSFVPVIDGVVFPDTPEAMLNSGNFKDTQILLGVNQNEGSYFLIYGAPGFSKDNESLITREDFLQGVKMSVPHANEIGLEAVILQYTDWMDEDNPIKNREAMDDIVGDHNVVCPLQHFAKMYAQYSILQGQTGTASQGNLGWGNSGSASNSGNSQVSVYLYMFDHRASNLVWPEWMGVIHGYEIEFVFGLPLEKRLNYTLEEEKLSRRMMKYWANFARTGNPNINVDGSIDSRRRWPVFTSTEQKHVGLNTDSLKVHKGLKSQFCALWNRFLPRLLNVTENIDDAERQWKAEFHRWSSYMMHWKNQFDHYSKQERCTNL
T3 sequence (P81908 whole entry): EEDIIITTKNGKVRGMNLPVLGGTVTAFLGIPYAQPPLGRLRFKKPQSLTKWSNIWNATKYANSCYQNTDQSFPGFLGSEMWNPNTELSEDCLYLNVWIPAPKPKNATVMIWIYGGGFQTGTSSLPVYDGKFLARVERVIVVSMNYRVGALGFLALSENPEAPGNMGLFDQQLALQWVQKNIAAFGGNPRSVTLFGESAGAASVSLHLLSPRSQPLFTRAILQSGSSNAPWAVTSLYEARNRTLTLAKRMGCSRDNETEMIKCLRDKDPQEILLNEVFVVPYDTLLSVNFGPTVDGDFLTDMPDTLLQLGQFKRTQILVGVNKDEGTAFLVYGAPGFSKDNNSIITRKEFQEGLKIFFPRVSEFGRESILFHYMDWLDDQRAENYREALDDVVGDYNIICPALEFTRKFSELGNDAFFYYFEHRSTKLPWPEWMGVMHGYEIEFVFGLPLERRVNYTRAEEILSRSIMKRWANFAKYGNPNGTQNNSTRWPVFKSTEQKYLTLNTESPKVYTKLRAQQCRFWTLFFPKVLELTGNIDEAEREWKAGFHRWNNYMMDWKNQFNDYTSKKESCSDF

As usually defined, the IC50 is the concentration that inhibits the measured activity by half. Higher therefore signals a need for much substance. For `Cc1nc(C)c(C(=O)OCCCOC(=O)Cc2ccc(Br)cc2)nc1C` [Compound 8m, 3-{[(4-Bromophenyl)acetyl]oxy}propyl 3,5,6-trimethylpyrazine-2-carboxylate], in series [1], the “Selectivity Index = IC50 (BChE)/IC50 (AChE)” value (from here on “Selectivity Index = IC50”) was 52.17. In series [2], this molecule showed an IC50 of 200.84 ± 0.016 µM.
For the molecule `COc1ccc(C(=O)OCCCOC(=O)c2nc(C)c(C)nc2C)cc1F` [Compound 8j, 3-[(3-Fluoro-4-methoxybenzoyl)oxy]propyl 3,5,6-trimethylpyrazine-2-carboxylate], the “Selectivity Index = IC50” value in series [1] turned out to be 2.97. Moreover, the concentration for half-maximal inhibition (IC50) was 7.12 ± 0.012 µM in series [2] and 857 ± 2 µM in series [3].
Take `COc1ccc(CC(=O)OCCCOC(=O)c2nc(C)c(C)nc2C)cc1F` [Compound 8n, 3-{[(3-Fluoro-4-methoxyphenyl)acetyl]oxy}propyl 3,5,6-trimethylpyrazine-2-carboxylate]: the “Selectivity Index = IC50” value in series [1] was 20.67. The molecule also displayed a half-maximal inhibitory concentration (IC50) in series [3] of 3060 ± 340 µM.
For the molecule `COc1cc(CC(=O)OCCCOC(=O)c2nc(C)c(C)nc2C)cc(OC)c1OC` [Compound 8l, 3-{[(3,4,5-Trimethoxyphenyl)acetyl]oxy}propyl 3,5,6-trimethylpyrazine-2-carboxylate], the “Selectivity Index = IC50” value in series [1] is 1.31 × 10^4. The concentration for half-maximal inhibition (IC50) in series [1] turned out to be 0.3034 ± 0.00026 µM; in series [2] it was 77.45 ± 0.029 µM; in series [3] it was 3960 ± 260 µM.
`COc1ccc(/C=C/C(=O)OCCCOC(=O)c2nc(C)c(C)nc2C)cc1OC` [Compound 8o, 3-{[(2E)-3-(3,4-Dimethoxyphenyl)prop-2-enoyl]oxy}propyl 3,5,6-trimethyl-pyrazine-2-carboxylate]: the “Selectivity Index = IC50” value in series [1] is 1.23 × 10^6. Also, the IC50 in series [1] is 0.00324 ± 0.0001 µM; in series [2] it was 45.29 ± 0.033 µM; in series [3] it was 3970 ± 100 µM.
As to `COc1cc(/C=C/C(=O)OCCCOC(=O)c2nc(C)c(C)nc2C)cc(OC)c1OC` [Compound 8p, 3-{[(2E)-3-(3,4,5-Trimethoxyphenyl)prop-2-enoyl]oxy}propyl 3,5,6-tri-methylpyrazine-2-carboxylate], the “Selectivity Index = IC50” value in series [1] is on record as 4.30 × 10^4. Further, the IC50 in series [1] turned out to be 0.09351 ± 0.0002 µM; in series [2], 71.28 ± 0.044 µM; in series [3], 4020 ± 30 µM.
As to `COc1cc(OC)cc(C(=O)OCCCOC(=O)c2nc(C)c(C)nc2C)c1` [Compound 8b, 3-[(3,5-Dimethoxybenzoyl)oxy]propyl 3,5,6-trimethylpyrazine-2-carboxylate], in series [1], the “Selectivity Index = IC50” value was 1.27 × 10^6. Moreover, the IC50 in series [1] was found to be 0.00443 ± 0.00035 µM; in series [2], 3.66 ± 0.104 µM; in series [3], 5640 ± 380 µM.
For `Cc1nc(C)c(C(=O)OCCCOC(=O)c2ccc(Br)cc2)nc1C` [Compound 8h, 3-[(4-Bromobenzoyl)oxy]propyl 3,5,6-trimethylpyrazine-2-carboxylate], in series [1], the “Selectivity Index = IC50” value is given as 2.62. The molecule further gave an IC50 in series [3] of 2490 ± 290 µM.
On the same counts, the results for `Cc1nc(C)c(C(=O)OCCCOC(=O)c2cccc(Br)c2)nc1C` [Compound 8g, 3-[(3-Bromobenzoyl)oxy]propyl 3,5,6-trimethylpyrazine-2-carboxylate] are 6.23 and 21100 ± 460 µM.
As for `Cc1nc(C)c(C(=O)OCCCOC(=O)c2cccc(Cl)c2)nc1C` [Compound 8f, 3-[(3-Chlorobenzoyl)oxy]propyl 3,5,6-trimethylpyrazine-2-carboxylate], the “Selectivity Index = IC50” value in series [1] is reported as 4.95 × 10^5. Also, the IC50 in series [1] stood at 0.00661 ± 0.00013 µM; in series [2], 45.88 ± 0.024 µM; in series [3] it was 3270 ± 60 µM.
With `COc1cccc(C(=O)OCCCOC(=O)c2nc(C)c(C)nc2C)c1OC` [Compound 8a, 3-[(2,3-Dimethoxybenzoyl)oxy]propyl 3,5,6-trimethylpyrazine-2-carboxylate], the “Selectivity Index = IC50” value in series [1] is on record as 2.16 × 10^4. Further, the half-inhibitory concentration (IC50) stood at 0.1679 ± 0.00039 µM in series [1] and 3630 ± 70 µM in series [3].
Turning to `COc1ccc(C(=O)OCCCOC(=O)c2nc(C)c(C)nc2C)cc1OC` [Compound 8d, 3-[(3,4-Dimethoxybenzoyl)oxy]propyl 3,5,6-trimethylpyrazine-2-carboxylate], the “Selectivity Index = IC50” value in series [1] is recorded as 1.02 × 10^6. In addition, the half-maximal inhibitory concentration (IC50) in series [1] was determined as 0.00412 ± 0.00024 µM; in series [2], 51.81 ± 0.047 µM; in series [3], 4290 ± 120 µM.
`Nc1c2c(nc3ccccc13)CCCC2` [Tacrine, reference compound]: the Cell viability in series [4] (25 µM) is given as 99.78 ± 1.07 ^ns percentage of control; in series [4] (50 µM) it was 95.02 ± 2.30 ^ns percentage of control; in series [4] (125 µM), 83.72 ± 0.73 percentage of control; in series [4] (200 µM) it was 81.80 ± 1.86 percentage of control; in series [4] (300 µM), 74.32 ± 3.93 percentage of control; in series [4] (400 µM), 23.61 ± 0.05 percentage of control. For the same molecule, the Cell viability in series [4] (500 µM) is listed as 19.92 ± 0.05 percentage of control; in series [5] (25 µM), 87.89 ± 0.85 ^ns percentage of control; in series [5] (50 µM) it was 88.17 ± 1.55 ^ns percentage of control; in series [5] (125 µM), 75.42 ± 0.78 percentage of control; in series [5] (200 µM), 48.75 ± 0.43 percentage of control; in series [5] (300 µM) it was 43.39 ± 2.69 percentage of control. The Cell viability in series [5] (400 µM) is on record as 34.69 ± 2.86 percentage of control.
In the case of `COc1ccc(C(=O)OCCCOC(=O)c2nc(C)c(C)nc2C)c(OC)c1` [Compound 8c, 3-[(2,4-Dimethoxybenzoyl)oxy]propyl 3,5,6-trimethylpyrazine-2-carboxylate], the IC50 in series [1] stood at 0.3879 ± 0.00045 µM; in series [2], 22.54 ± 0.014 µM; in series [3] it was 2700 ± 30 µM.
`Cc1nc(C)c(C(=O)OCCCOC(=O)c2ccc(F)cc2)nc1C` [Compound 8i, 3-[(4-Fluorobenzoyl)oxy]propyl 3,5,6-trimethylpyrazine-2-carboxylate]: the “Selectivity Index = IC50” value in series [1] is given as 1.14 × 10^2. Moreover, the IC50 in series [2] came out at 211.18 ± 0.039 µM.
For `Cc1nc(C)c(C(=O)OCCCOC(=O)c2cccc(F)c2)nc1C` [Compound 8k, 3-[(3-Fluorobenzoyl)oxy]propyl 3,5,6-trimethylpyrazine-2-carboxylate], in series [1], the “Selectivity Index = IC50” value is 9.49. Besides, the values for the half-inhibitory concentration (IC50) in series [2] and in series [3] were 5.1 ± 0.04 µM and 5490 ± 150 µM, respectively.
For `COc1cccc(OC)c1C(=O)OCCCOC(=O)c1nc(C)c(C)nc1C` [Compound 8e, 3-[(2,6-Dimethoxybenzoyl)oxy]propyl 3,5,6-trimethylpyrazine-2-carboxylate], the “Selectivity Index = IC50” value in series [1] is recorded as 2.36 × 10^3. Also, the IC50 in series [1] is 0.1438 ± 0.00025 µM; in series [2], 55.86 ± 0.035 µM; in series [3], 340 ± 30 µM.
